From patent publication US10670605B2, “Cysteine reactive probes and uses thereof” (The Scripps Research Institute, priority 2015, dated 2020)

Tests used:
Assay in all cases: Competitive isoTOP-ABPP, cell lysates
Type in all cases: binding
EZH2 C503 (Q15910) = EZH2 C503 (Q15910) (Homo sapiens, UniProt Q15910)
USP48 C39 (Q86UV5) = biological target: T1, USP48 C39 (Q86UV5) (Homo sapiens, UniProt Q86UV5); details: for isoTOP-ABPP reactivity profile ratio, Q86UV5_C39 / isoTOP-ABPP reactivity ratio, Q86UV5_C39: 500 μm
T1 sequence (Q86UV5 1-1035): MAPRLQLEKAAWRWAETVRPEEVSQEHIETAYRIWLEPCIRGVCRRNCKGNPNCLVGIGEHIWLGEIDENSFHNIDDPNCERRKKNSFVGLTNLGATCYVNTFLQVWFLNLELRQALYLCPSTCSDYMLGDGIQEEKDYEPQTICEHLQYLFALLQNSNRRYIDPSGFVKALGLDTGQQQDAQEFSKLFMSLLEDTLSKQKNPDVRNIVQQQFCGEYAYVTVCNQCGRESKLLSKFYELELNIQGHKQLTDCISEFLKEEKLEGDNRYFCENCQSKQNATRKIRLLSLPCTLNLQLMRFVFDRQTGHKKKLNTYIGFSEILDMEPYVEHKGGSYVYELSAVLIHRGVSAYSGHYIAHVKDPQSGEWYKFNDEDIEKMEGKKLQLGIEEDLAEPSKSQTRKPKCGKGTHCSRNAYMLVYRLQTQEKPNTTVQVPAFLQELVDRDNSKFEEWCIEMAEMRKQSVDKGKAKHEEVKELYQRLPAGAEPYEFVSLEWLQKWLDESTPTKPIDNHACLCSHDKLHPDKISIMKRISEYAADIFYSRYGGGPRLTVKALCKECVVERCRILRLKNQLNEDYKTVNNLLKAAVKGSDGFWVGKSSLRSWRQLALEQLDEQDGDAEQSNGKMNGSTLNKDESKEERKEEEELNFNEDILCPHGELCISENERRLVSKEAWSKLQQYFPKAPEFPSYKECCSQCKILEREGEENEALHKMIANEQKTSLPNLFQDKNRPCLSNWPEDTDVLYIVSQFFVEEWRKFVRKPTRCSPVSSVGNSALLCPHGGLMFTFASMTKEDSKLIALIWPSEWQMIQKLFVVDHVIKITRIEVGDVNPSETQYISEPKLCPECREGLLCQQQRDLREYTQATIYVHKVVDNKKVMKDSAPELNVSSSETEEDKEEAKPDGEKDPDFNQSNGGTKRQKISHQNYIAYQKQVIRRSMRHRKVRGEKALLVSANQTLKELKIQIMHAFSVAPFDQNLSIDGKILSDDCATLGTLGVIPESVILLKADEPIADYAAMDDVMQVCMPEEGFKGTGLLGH

CASP8 C360 (Q14790) = CASP8 C360 (Q14790) (Homo sapiens, UniProt Q14790); details: for isoTOP-ABPP reactivity ratio, Q14790_C360: 500 μm
Chain of CASP8 C360 (Q14790) (Q14790 whole entry, the tested form may be a part): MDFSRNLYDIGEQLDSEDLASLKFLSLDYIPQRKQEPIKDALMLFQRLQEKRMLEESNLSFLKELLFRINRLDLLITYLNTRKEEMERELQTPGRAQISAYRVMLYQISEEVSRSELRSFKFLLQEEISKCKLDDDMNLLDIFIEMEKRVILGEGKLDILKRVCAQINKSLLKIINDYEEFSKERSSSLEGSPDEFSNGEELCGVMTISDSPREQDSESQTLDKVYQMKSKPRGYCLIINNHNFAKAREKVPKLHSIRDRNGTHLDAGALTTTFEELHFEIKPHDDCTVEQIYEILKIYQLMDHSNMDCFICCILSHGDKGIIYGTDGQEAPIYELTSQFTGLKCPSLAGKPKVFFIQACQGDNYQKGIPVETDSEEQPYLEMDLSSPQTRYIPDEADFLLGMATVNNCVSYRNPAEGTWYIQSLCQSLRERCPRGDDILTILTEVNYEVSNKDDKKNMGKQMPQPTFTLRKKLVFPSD

CYR61 C39 (O00622) = biological target: T2, CYR61 C39 (O00622) (Homo sapiens, UniProt O00622); details: for isoTOP-ABPP ratio (reactivity profile), O00622_C39: 500 μm in-vitro ramos_231; for R value (DMSO/fragment): in vitro, MDA-MB-231
T2 sequence (O00622 25-381): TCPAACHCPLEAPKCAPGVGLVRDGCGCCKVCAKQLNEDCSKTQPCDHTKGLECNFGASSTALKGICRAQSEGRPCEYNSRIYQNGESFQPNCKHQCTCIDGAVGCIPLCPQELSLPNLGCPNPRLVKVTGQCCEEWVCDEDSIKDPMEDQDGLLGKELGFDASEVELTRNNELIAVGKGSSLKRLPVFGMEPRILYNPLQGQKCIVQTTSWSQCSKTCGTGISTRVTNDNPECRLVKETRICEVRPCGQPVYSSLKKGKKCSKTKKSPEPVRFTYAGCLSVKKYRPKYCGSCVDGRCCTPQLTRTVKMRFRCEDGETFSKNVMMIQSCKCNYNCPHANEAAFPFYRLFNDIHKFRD

PFKFB4 C159 (Q16877) = PFKFB4 C159 (Q16877) (Homo sapiens, UniProt Q16877)
Chain of PFKFB4 C159 (Q16877) (Q16877 whole entry): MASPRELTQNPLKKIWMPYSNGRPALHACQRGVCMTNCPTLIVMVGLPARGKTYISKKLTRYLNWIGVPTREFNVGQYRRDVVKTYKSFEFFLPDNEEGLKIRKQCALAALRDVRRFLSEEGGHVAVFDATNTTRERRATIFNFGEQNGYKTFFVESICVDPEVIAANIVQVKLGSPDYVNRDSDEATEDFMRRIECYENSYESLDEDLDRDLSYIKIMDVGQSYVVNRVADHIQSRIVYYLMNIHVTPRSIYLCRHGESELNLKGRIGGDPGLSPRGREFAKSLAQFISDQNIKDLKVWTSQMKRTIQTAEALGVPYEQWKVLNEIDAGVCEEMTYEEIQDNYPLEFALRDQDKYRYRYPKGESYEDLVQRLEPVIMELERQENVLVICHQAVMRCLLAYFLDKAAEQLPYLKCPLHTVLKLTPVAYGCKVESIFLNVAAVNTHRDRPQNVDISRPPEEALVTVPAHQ

Chain of EZH2 C503 (Q15910) (Q15910 whole entry): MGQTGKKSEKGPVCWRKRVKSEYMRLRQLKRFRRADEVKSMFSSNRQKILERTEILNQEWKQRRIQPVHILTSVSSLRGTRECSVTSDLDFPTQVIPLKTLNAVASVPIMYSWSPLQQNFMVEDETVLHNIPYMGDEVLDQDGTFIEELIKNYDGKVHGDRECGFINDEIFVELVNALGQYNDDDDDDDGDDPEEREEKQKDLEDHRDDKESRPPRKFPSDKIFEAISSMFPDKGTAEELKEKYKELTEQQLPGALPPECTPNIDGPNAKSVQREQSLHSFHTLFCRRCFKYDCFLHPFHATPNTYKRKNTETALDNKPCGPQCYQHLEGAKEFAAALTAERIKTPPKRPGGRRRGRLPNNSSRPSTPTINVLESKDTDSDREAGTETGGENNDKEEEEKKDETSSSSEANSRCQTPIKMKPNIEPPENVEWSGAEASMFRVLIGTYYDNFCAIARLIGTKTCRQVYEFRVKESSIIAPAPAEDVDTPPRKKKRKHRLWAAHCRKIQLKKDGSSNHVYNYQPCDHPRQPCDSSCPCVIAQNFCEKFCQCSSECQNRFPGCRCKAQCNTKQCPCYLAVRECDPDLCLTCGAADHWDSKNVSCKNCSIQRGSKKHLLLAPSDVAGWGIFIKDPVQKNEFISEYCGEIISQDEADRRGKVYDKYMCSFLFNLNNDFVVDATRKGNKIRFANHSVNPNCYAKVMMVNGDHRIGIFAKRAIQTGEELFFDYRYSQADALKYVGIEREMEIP
Chain of EZH2 C503 (Q15910) (O75530 whole entry partner): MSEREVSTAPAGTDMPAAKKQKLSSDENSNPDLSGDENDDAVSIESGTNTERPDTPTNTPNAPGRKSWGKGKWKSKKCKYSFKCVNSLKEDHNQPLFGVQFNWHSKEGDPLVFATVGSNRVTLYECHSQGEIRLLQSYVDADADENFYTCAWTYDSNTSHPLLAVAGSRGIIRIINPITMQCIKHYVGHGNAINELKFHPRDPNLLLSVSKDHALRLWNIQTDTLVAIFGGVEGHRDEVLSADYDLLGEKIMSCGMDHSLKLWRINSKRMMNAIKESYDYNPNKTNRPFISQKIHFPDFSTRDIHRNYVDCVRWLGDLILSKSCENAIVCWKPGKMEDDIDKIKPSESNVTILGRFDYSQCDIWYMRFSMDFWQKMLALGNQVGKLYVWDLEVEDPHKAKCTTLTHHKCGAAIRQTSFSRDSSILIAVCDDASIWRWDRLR
Chain of EZH2 C503 (Q15910) (Q15022 whole entry partner): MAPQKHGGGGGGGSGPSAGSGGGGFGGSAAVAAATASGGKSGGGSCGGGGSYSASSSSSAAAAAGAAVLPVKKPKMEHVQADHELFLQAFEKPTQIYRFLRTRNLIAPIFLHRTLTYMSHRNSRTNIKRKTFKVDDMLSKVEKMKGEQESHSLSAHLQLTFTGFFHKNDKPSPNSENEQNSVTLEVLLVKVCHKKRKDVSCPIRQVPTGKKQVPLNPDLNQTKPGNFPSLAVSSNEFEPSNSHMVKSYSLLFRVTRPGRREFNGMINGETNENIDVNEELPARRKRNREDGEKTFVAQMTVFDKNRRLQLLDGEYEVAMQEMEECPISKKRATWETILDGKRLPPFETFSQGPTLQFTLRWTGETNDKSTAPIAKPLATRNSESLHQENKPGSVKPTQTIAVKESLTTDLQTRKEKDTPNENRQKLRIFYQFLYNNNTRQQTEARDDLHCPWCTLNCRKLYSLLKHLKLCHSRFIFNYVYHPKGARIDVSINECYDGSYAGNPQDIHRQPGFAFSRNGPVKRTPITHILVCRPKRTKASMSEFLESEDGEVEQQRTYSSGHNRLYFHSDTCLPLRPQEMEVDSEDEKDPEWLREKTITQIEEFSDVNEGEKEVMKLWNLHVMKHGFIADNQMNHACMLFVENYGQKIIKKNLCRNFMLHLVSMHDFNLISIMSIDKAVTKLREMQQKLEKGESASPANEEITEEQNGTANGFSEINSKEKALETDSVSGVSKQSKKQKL

With C=CC(=O)N(Cc1cccnc1)c1ccc(Oc2ccccc2)c(C(F)(F)F)c1 [compound 15] the “isoTOP-ABPP ratio, Q15910_C503” value (EZH2 C503 (Q15910); 500 μM, invitro, 231) was 0.8 and the “isoTOP-ABPP ratio (reactivity profile), Q86UV5_C39” value (USP48 C39 (Q86UV5); 500 μm in-vitro ramos) was 0.7.
COc1cc(NC(=O)CCl)cc(OC)c1 [compound 43] was tested, and the “isoTOP-ABPP reactivity profile ratio, Q15910_C503” value (EZH2 C503 (Q15910); 500 μm, in-vitro_ramos_231) was 20.0 and the “isoTOP-ABPP reactivity profile ratio, Q86UV5_C39” value (USP48 C39 (Q86UV5); in-vitro_ramos_231) was 1.5.
For CC(C)CCOCCNC(=O)CCl [compound 27], the “isoTOP-ABPP ratio (reactivity profile), Q14790_C360” value (CASP8 C360 (Q14790); 500 μm in-vitro ramos) was 1.2, the “isoTOP-ABPP ratio (reactivity profile), Q14790_C360” value (CASP8 C360 (Q14790); 500 μm in-vitro ramos_231) was 0.8 and the “isoTOP-ABPP ratio (reactivity profile), O00622_C39” value (CYR61 C39 (O00622)) was 1.0. The “isoTOP-ABPP ratio (reactivity profile), Q86UV5_C39” value (USP48 C39 (Q86UV5); 500 μm in-vitro ramos_231) was 0.8.
In the case of C=CC(=O)N1CCC(c2noc3ccc(F)cc23)CC1 [compound 37], the “isoTOP-ABPP reactivity ratio, Q14790_C360” value (CASP8 C360 (Q14790); in-vitro_ramos) is reported as 1.0 and the “isoTOP-ABPP reactivity ratio, Q86UV5_C39” value (USP48 C39 (Q86UV5); in-vitro_ramos) is reported as 0.7.
COc1ccc(C2CC(c3cccs3)=NN2C(=O)CCl)cc1 (centres unmarked) [compound 4] was tested, and the “R value (DMSO/fragment)” value (CASP8 C360 (Q14790); 250 μM, in vitro, MDA-MB-231) was 12.3, the “R value (DMSO/fragment)” value (CYR61 C39 (O00622); 250 μM) was 2.8 and the “R value (DMSO/fragment)” value (EZH2 C503 (Q15910); 250 μM, in vitro, Ramos) was 1.5. The “R value (DMSO/fragment)” value (PFKFB4 C159 (Q16877); 250 μM, in vitro, MDA-MB-231) was 1.4, the “R value (DMSO/fragment)” value (USP48 C39 (Q86UV5); 250 μM, in vitro, MDA-MB-231) was 1.4 and the “R value (DMSO/fragment)” value (USP48 C39 (Q86UV5); 250 μM, in vitro, Ramos) was 1.4.
With O=C(CCl)Nc1cccc2ncccc12 [compound 51] the “isoTOP-ABPP reactivity profile ratio, Q16877_C159” value (PFKFB4 C159 (Q16877); 500 μm, in-vitro_ramos) was 1.1 and the “isoTOP-ABPP reactivity profile ratio, Q86UV5_C39” value (USP48 C39 (Q86UV5); in-vitro_ramos) was 1.8.
In the case of COc1ccccc1OCCNC(=O)CCl [compound 28], the “isoTOP-ABPP ratio (reactivity profile), Q14790_C360” value (CASP8 C360 (Q14790); 500 μm in-vitro ramos_231) is reported as 1.1 and the “isoTOP-ABPP ratio (reactivity profile), O00622_C39” value (CYR61 C39 (O00622)) is reported as 1.0.
For O=C(CCl)N1CCN(S(=O)(=O)c2ccccc2F)CC1 [compound 10], the “isoTOP-ABPP ratio Q14790_C360” value (CASP8 C360 (Q14790); 500 μM, invitro, 231) was 2.8, the “isoTOP-ABPP ratio Q14790_C360” value (CASP8 C360 (Q14790); 500 μM, invitro, ramos) was 1.5 and the “isoTOP-ABPP ratio, Q16877_C159” value (PFKFB4 C159 (Q16877); 500 μM, invitro, 231) was 1.2. The “isoTOP-ABPP ratio, Q86UV5_C39” value (USP48 C39 (Q86UV5); 500 μM, invitro, 231) was 2.5.
With O=C(CCl)Nc1ccccc1C1CCCCCC1 [compound 35] the “isoTOP-ABPP reactivity ratio, Q14790_C360” value (CASP8 C360 (Q14790); in-vitro_ramos) was 1.3 and the “isoTOP-ABPP reactivity ratio, Q86UV5_C39” value (USP48 C39 (Q86UV5); in-vitro_ramos) was 1.0.
For C=CC(=O)N(c1ccccc1)C1CCCCC1 [compound 46], the “isoTOP-ABPP reactivity profile ratio, O00622_C39” value (CYR61 C39 (O00622); 500 μm, in-vitro_ramos_231) was 1.9.
In the case of Cc1ccc(C=C(C#N)C(=O)NCCN2CCOCC2)cc1 [compound 41], the “isoTOP-ABPP reactivity ratio, Q14790_C360” value (CASP8 C360 (Q14790); in-vitro_ramos) is reported as 0.8 and the “isoTOP-ABPP reactivity ratio, Q14790_C360” value (CASP8 C360 (Q14790); in-vitro_ramos_231) is reported as 1.0.
For O=C(CCl)N(Cc1ccc(F)cc1)C12CC3CC(CC(C3)C1)C2 [compound 34], the “isoTOP-ABPP reactivity ratio, Q16877_C159” value (PFKFB4 C159 (Q16877); 500 μm, in-vitro_ramos) was 1.4.
For CC(C)(C)c1cc(NC(=O)CCl)on1 [compound 32], the “isoTOP-ABPP reactivity ratio, Q15910_C503” value (EZH2 C503 (Q15910); 500 μm, in-vitro_ramos) was 1.7 and the “isoTOP-ABPP reactivity ratio, Q16877_C159” value (PFKFB4 C159 (Q16877); 500 μm, in-vitro_ramos) was 1.5.
For C=CC(=O)N(c1ccccc1)c1ccc(Br)cc1 [compound 5], the “isoTOP-ABPP ratio Q14790_C360” value (CASP8 C360 (Q14790); 500 μM, invitro, 231) was 1.0, the “isoTOP-ABPP ratio Q14790_C360” value (CASP8 C360 (Q14790); 500 μM, invitro, ramos) was 1.3 and the “isoTOP-ABPP ratio, Q15910_C503” value (EZH2 C503 (Q15910); 500 μM, invitro, ramos) was 20.0. The “isoTOP-ABPP ratio, Q16877_C159” value (PFKFB4 C159 (Q16877); 500 μM, invitro, ramos) was 20.0 and the “isoTOP-ABPP ratio, Q86UV5_C39” value (USP48 C39 (Q86UV5); 500 μM, invitro, ramos) was 1.2.
O=C(CCl)Nc1cc(C(F)(F)F)cc(C(F)(F)F)c1 [compound 3] was tested, and the “R value (DMSO/fragment)” value (CASP8 C360 (Q14790); 500 μM, in vitro, MDA-MB-231) was 3.3, the “R value (DMSO/fragment)” value (CASP8 C360 (Q14790); 500 μM, invitro, ramos) was 2.3 and the “R value (DMSO/fragment)” value (CYR61 C39 (O00622); 500 μM) was 4.0. For the same compound, the “R value (DMSO/fragment)” value (EZH2 C503 (Q15910); 500 μM, invitro, ramos) was 2.0, the “R value (DMSO/fragment)” value (PFKFB4 C159 (Q16877); 500 μM, invitro, ramos) was 12.9 and the “R value (DMSO/fragment)” value (USP48 C39 (Q86UV5); 500 μM, in vitro, MDA-MB-231) was 1.8. The “R value (DMSO/fragment)” value (USP48 C39 (Q86UV5); 500 μM, invitro, ramos) was 1.5.
